Source: ChEMBL document CHEMBL2074260, “Role of breast cancer resistance protein in the bioavailability and fetal penetration of topotecan” (J Natl Cancer Inst, 2000)
Blank lines part the entries; values can stand above or below the compound they belong to.

Experiments:
Type in all cases: functional, cell-based
[1] = biological target: T1, Broad substrate specificity ATP-binding cassette transporter ABCG2 (Mus musculus, UniProt Q7TMS5); assay: TP_TRANSPORTER: inhibition of Topotecan transepithelial transport (basal to apical) in Bcrp1-expressing LLC-PK1 cells; details: pig
T1 sequence (Q7TMS5 whole entry): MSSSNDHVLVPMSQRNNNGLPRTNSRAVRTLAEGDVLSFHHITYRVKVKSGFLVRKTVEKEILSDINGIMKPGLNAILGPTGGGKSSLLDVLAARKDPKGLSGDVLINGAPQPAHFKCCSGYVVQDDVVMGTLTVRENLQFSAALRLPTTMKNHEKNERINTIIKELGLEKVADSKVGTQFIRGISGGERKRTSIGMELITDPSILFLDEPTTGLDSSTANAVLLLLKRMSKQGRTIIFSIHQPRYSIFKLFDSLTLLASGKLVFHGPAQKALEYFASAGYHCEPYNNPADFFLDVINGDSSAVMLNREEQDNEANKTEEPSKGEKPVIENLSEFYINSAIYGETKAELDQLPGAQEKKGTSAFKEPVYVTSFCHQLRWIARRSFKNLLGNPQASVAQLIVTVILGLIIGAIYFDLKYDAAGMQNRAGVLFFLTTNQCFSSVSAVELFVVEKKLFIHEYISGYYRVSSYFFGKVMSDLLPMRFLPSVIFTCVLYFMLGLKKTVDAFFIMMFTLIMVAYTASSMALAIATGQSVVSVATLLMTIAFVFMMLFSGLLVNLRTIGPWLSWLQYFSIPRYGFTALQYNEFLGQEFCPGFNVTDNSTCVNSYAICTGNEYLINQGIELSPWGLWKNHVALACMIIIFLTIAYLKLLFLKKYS

[2] = biological target: T1, Broad substrate specificity ATP-binding cassette transporter ABCG2; assay: TP_TRANSPORTER: inhibition of Topotecan transepithelial transport (basal to apical)(Topotecan: 10uM, GF120918:10uM) in Bcrp1-expressing LLC-PK1 cells; details: pig, llc-pk1, 10 µM
[3] = biological target: T1, Broad substrate specificity ATP-binding cassette transporter ABCG2; assay: TP_TRANSPORTER: transepithelial transport (basal to apical) in Bcrp1-expressing LLC-PK1 cells; details: pig

Activity [1]: is not an inhibitor [-]
SMILES: C/C=C/C[C@@H](C)C(=O)[C@H]1C(=O)N[C@@H](C(C)C)C(=O)N(C)CC(=O)N(C)[C@@H](CC(C)C)C(=O)N[C@@H](C(C)C)C(=O)N(C)[C@@H](CC(C)C)C(=O)N[C@@H](C)C(=O)N[C@H](C)C(=O)N(C)[C@@H](CC(C)C)C(=O)N(C)[C@@H](CC(C)C)C(=O)N(C)[C@@H](C(C)C)C(=O)N1C [VALSPODAR]

Activity [2]: inhibitor [+]
SMILES: COc1cc2c(cc1OC)CN(CCc1ccc(NC(=O)c3cccc4c(=O)c5cccc(OC)c5[nH]c34)cc1)CC2.Cl [ELACRIDAR HYDROCHLORIDE]

Activity [3]: substrate [+]
SMILES: CC[C@@]1(O)C(=O)OCc2c1cc1n(c2=O)Cc2cc3c(CN(C)C)c(O)ccc3nc2-1 [TOPOTECAN]
